Source: PubChem BioAssay AID602211 (Sanford-Burnham Center for Chemical Genomics, 2012)
The source made the active and inactive calls.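 The calls were made as follows: active = mean IC50 at or below 10 µM; inactive = the rest.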

System: H9c2 cardiomyocytes, H2O2 protection, ATPLite viability, 2 h
Assay: protection of H9c2 cardiomyocytes from H2O2 death, dose response, cell-based, ATPLite luminescence, set 2 (AID 602211);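 also: potency is for protection so actives keep ATP signal up against peroxide killing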

SMILES	IC50
O=C(N/N=C/c1ccccn1)c1[nH]c2ccc([N+](=O)[O-])cc2c1-c1ccccc1	2.33 µM
COc1cccc(Nc2nc3ccccc3n3nnnc23)c1	> 79 µM (inactive)
COc1ccc(C(C(=O)NCc2ccccc2)N(Cc2cccs2)C(=O)c2cnccn2)cc1 (centres undefined)	25 µM (inactive)
CN(CC1COc2ccccc2O1)c1nc(-c2cccnc2)nc2ccccc12 (centres undefined)	25.9 µM (inactive)
COc1cccc(CN(C)C(=O)C(Cc2ccccc2)NC(=O)c2ccccc2)c1OC (centres undefined)	6.8 µM
NC(=O)c1nsc(C(=O)N(c2ccccc2)C(C(=O)NC2CCCC2)c2ccc3ncccc3c2)c1N (centres undefined)	3.35 µM
Cc1ccc2nsnc2c1S(=O)(=O)N(Cc1ccco1)Cc1cc2cccc(C)c2[nH]c1=O	13.2 µM (inactive)
CCN(CC)c1ccc(C2C(C(=O)OC(C)C)C(=O)CC(C)(O)C2C(=O)OC(C)C)cc1 (centres undefined)	7.99 µM
CCOc1ccc2[nH]c(=O)c(CN(Cc3nnnn3Cc3ccco3)C3CCCCC3)cc2c1	> 79 µM (inactive)
COc1ccc(-c2cc(-c3nnc(COC(=O)c4ccncc4)o3)c3ccccc3n2)cc1OC	5.89 µM
C=CCn1cnc2c(c1=O)c1nc3ccccc3nc1n2/N=C/c1cc(OC)c(OC)c(OC)c1	1.09 µM
N#Cc1c(-c2ccco2)cc(-c2ccccn2)nc1N	28.5 µM (inactive)
Cn1c(-n2c(CCCN3C(=O)c4ccccc4C3=O)nc3ccccc3c2=O)nc2ccccc21	11.6 µM (inactive)
CCCc1cc(N2CCN(C(=O)c3ccco3)CC2)n2c(nc3ccccc32)c1C#N	> 79 µM (inactive)
NS(=O)(=O)c1ccc(N=Cc2c(O)n(-c3nccs3)c(=O)c3ccccc23)cc1	4.2 µM
COc1ccc(-c2nn3c(-c4ccco4)nnc3s2)cc1OC	12.3 µM (inactive)
COc1ccc(OC)c(NC(=O)COC(=O)c2c3c(nc4ccccc24)CCCC3)c1	1.15 µM
O=C(CSc1nnc(Cc2cccs2)n1CCc1ccccc1)N1CCCc2ccccc21	> 79 µM (inactive)
CCCNC(=O)c1c(N)n(-c2cccc(OC)c2)c2nc3ccccc3nc12	> 79 µM (inactive)
COc1cc(-c2cc(NC(C)=O)c3ncc(-c4cc(OC)c(OC)c(OC)c4)n3c2)cc(OC)c1OC	3.85 µM
O=C(NCCc1ccccc1Cl)c1ccc2nc3ccccc3c(=O)n2c1	7.16 µM
Cn1c(C(=O)NCCc2ccsc2)cc2c(=O)n(C)c3ccccc3c21	4.74 µM
COc1cc(CCNc2ccc3nnc(-c4ccccc4)n3n2)cc(OC)c1OC	9.52 µM
O=C(NC1CCCCC1)C(c1ccc2ncccc2c1)N(Cc1cccs1)C(=O)c1cccs1 (centres undefined)	1.96 µM

SMILES	IC50
CCC(Oc1ccccc1)C(=O)Nc1ccccc1C(=O)N1CCCCC1 (centres undefined)	36.2 µM (inactive)
COc1ccc(-c2nn(-c3ccccc3)cc2C(=O)Nc2nccs2)cc1	8.75 µM
C[C@@H]1ON(C)[C@H]2C[C@H]3c4[nH]c5ccc(-c6ccc7c(c6)OCO7)cc5c4CCN3C[C@@H]12	> 79 µM (inactive)
c1cc2[nH]snc2c2nc(C3CC3)nc12	7.56 µM
COc1ccc(-c2ccc3c(c2)S(=O)(=O)c2cccc(C(=O)NC[C@@H]4CCCO4)c2C3=O)cc1OC	4.98 µM
NC(=O)c1nsc(C(=O)N(Cc2ccco2)C(C(=O)NCc2ccccc2)c2ccc(O)cc2)c1N (centres undefined)	9.87 µM
CC(=O)Nc1cccc(-c2cc(NC=O)c3ncc(-c4cccc(C(C)=O)c4)n3c2)c1	22.1 µM (inactive)
COc1ccc(CCn2c(=N)c(C(=O)NCC3CCCO3)cc3c(=O)n4cccc(C)c4nc32)cc1OC (centres undefined)	2.6 µM
COc1cccc(-c2nn(-c3ccccc3)cc2C(=O)Nc2nccs2)c1	12.8 µM (inactive)
O=C(CN(c1ccc2c(c1)OCCO2)S(=O)(=O)c1ccccc1)Nc1ccc2c(c1)OCO2	4.32 µM
COc1ccc(-c2csc(NC(=O)CCCc3nc4ccccc4c(=O)[nH]3)n2)cc1OC	3.42 µM
CC(=O)c1ccc(N2CCN(C(=O)C3CCCN(c4ncnc5c4nc4n5CCCCC4)C3)CC2)cc1 (centres undefined)	2.68 µM
CCc1nc(N2CCN(C(=O)c3ccco3)CC2)c2oc3ccccc3c2n1	> 79 µM (inactive)
CC(=O)c1ccc(N2CCN(C(=O)c3cc(-c4cccnc4)nc4ccc(Br)cc34)CC2)cc1	3.78 µM
CC(=O)Nc1cccc(-c2cc(NC(C)=O)c3ncc(-c4ccccc4)n3c2)c1	13.7 µM (inactive)
Cc1ncc(CO)c2c1Oc1nc(-c3ccccc3)nc(SCC(=O)N3CCCCC3)c1C2	> 79 µM (inactive)
COc1ccccc1NC(=O)CSc1ccc2nnc(-c3ccc(C)cc3)n2n1	3.16 µM
CCOC(=O)N1CCc2c(sc(NC(=O)CN3CCOCC3)c2C(=O)Nc2ccccc2)C1	39.9 µM (inactive)
O=[N+]([O-])c1ccc(Nc2nc(N/N=C/c3cccc(F)c3)nc(N3CCCC3)n2)cc1	9.66 µM
COc1ccccc1N1CCN(C(=O)c2ccc3nc(-c4ccco4)c(-c4ccco4)nc3c2)CC1	7.68 µM
C[C@H](CO)N1C[C@H](C)[C@@H](CN(C)C(=O)Nc2ccc3c(c2)OCO3)Oc2c(NC(=O)Nc3ccc(C(F)(F)F)cc3)cccc2C1=O	40.3 µM (inactive)
O=C(NC1CCCCC1)C(c1ccc2ncccc2c1)N(Cc1ccccc1)C(=O)c1ccc2c(c1)OCCO2 (centres undefined)	5.54 µM
CCOC(=O)c1ccc(NC(=O)c2nc[nH]c2C(=O)NCCCCCNC(=O)OC(C)(C)C)cc1	4.43 µM
Cc1nc2ccccc2c2c(N)c3ccccc3n12	14.6 µM (inactive)

SMILES	IC50
O=C(Nc1cccc(NC(=O)c2ccc([N+](=O)[O-])o2)c1)c1ccco1	1.58 µM
COc1cc(-c2cc(NC=O)c3ncc(-c4ccc(C(C)=O)cc4)n3c2)cc(OC)c1OC	3.51 µM
COc1cccc(-c2cnc3c(NC=O)cc(-c4cc(OC)c(OC)c(OC)c4)cn23)c1	3.61 µM
Nc1c(C(=O)NC2CC2)c2nc3ccccc3nc2n1-c1ccc2c(c1)OCO2	4.49 µM
O=CNc1cc(-c2ccc(C(=O)NC3CC3)cc2)cn2c(-c3ccccc3)cnc12	10.3 µM (inactive)
COCCN1Cc2cccc(C(=O)Nc3cccc(-c4nc5ccccc5[nH]4)c3)c2C1=O	3.91 µM
CC(=NO)C1CCC2C3CCC4CC(=NO)CCC4(C)C3C(C)(O)CC12C (centres undefined)	> 79 µM (inactive)
O=C(C[C@H]1C/C=C\CC[C@H](Cc2ccc(F)cc2)C(=O)O[C@H](c2ccccc2)CNC1=O)N[C@H](CO)Cc1ccccc1	> 79 µM (inactive)
CN1CCc2nc3ccccc3c(C(=O)OCC(=O)N(CCC#N)c3ccccc3)c2C1	22.7 µM (inactive)
Cc1cccc(NC(=O)c2oc3ccc(S(=O)(=O)N4CCOCC4)cc3c2C)c1C	3.23 µM
CCOc1cccc(-c2nn3c(-c4ccccn4)nnc3s2)c1	6.55 µM
CCN(C[C@H]1N[C@@](C)(C(=O)OC)[C@H]2C(=O)N(Cc3ccccc3)C(=O)[C@@H]12)C(=O)c1ccc(C(C)(C)C)cc1	6.25 µM
COC(=O)c1ccccc1NC(=O)c1ccc2nccnc2c1	50.6 µM (inactive)
CC(=O)c1cccc(-c2cnc3c(NC=O)cc(-c4ccccc4F)cn23)c1	7.66 µM
O=C(Cn1nc(C(=O)O)c2ccccc2c1=O)c1c[nH]c2ccccc12	3.53 µM
O=C(NCc1ccco1)c1cc(-c2cccnc2)nc2ccc(Cl)cc12	4.95 µM
COc1ccccc1OCC(=O)Nc1cccc(-c2nnc(-c3ccco3)o2)c1	> 79 µM (inactive)
COc1cc(NC(=O)c2c(OC)cccc2OC)ccc1NC(=O)c1cc2ccccc2o1	15.1 µM (inactive)
COc1ccccc1-c1cc(NC=O)c2ncc(-c3cccc(C(C)=O)c3)n2c1	8.53 µM
COC(=O)c1cc(OC)c(OC)cc1NC(=O)c1ccc(C)o1	3.98 µM
CCc1nc2ccc(C(=O)Nc3cc(-c4ccccc4)ccc3OC)cn2c1N(C)Cc1nccs1	5.95 µM
O=C(NCCN1CCOCC1)c1cnn2c(-c3ccccc3)cc(-c3ccccc3)nc12	> 79 µM (inactive)
Cc1c(O)ccc2c(-c3ccccc3)cc(=O)oc12	> 79 µM (inactive)
C/C(=N\Nc1nnc2c3ccccc3n(C)c2n1)c1ccc(C)o1	10.4 µM (inactive)

SMILES	IC50
CCC(=O)Oc1cccc(C(=O)Nc2ccc(-c3nnc(-c4ccco4)o3)cc2)c1	> 79 µM (inactive)
COc1cc(-c2cc(NC(C)=O)c3ncc(-c4ccc(C(C)=O)cc4)n3c2)cc(OC)c1OC	6.06 µM
CCOC(=O)N1CCC(n2c(SCC(=O)N3CCC(C)CC3)nc3ccccc3c2=O)CC1	> 79 µM (inactive)
CC(=O)Nc1cc(C)nn1-c1nc2ccccc2s1	14.6 µM (inactive)
COc1cccc(/C=N/NC(=O)c2ccncc2)c1OC(=O)c1ccc(Br)cc1	15.4 µM (inactive)
COc1cc(-c2cc(NC=O)c3ncc(-c4ccccc4)n3c2)cc(OC)c1OC	> 79 µM (inactive)
CC(=O)Nc1ccc(NS(=O)(=O)c2cc(-c3n[nH]c(=O)c4ccccc34)ccc2C)cc1	3.65 µM
COc1ccc2cc3cc(C(=O)NCCc4ccc(OC)c(OC)c4)oc3nc2c1	4.28 µM
CCOc1ccc(-n2cc(-c3ccccc3)c3c(N4CCOCC4)ncnc32)cc1	6.61 µM
CCOC(=O)C1CCN(c2cc3c(cc2NC(=O)c2ccc(OC)c(OC)c2)n(C)c(=O)n3C)CC1	1.22 µM
N#Cc1c(-c2ccco2)cc(-c2cccnc2)nc1N	11 µM (inactive)
Cn1c(=O)n(CCc2ccccc2)c(=O)c2c1nc1n2CCN1Cc1ccco1	> 79 µM (inactive)
CC(=O)Nc1cc(-c2ccccc2)cn2c(-c3cccc(C(C)=O)c3)cnc12	8.67 µM
CC(C)(C)OC(=O)NCc1ccc(NC(=O)c2nc[nH]c2C(=O)NCCCCCCNC(=O)c2[nH]cnc2C(=O)Nc2ccc(CNC(=O)OC(C)(C)C)cc2)cc1	> 79 µM (inactive)
CC(=O)Nc1cccc(-c2cc(NC=O)c3ncc(-c4ccc(C(C)=O)cc4)n3c2)c1	6.5 µM
O=C(CNC(=O)c1nc[nH]c1C(=O)NCc1ccccc1)OCc1ccccc1	> 79 µM (inactive)
Fc1ccc(CSc2ccc3nnc(-c4cccnc4)n3n2)cc1	6.22 µM
CC(=O)c1cccc(NC(=O)Nc2ccc3c(c2)N(C)C(=O)CS3)c1	3.53 µM
COc1cc(C(=O)N/N=C/c2ccc(OC(=O)c3ccccc3)c(OC)c2)ccc1O	6.65 µM
COc1ccc(-c2oc3c(OC)c(OC)c(OC)c(O)c3c(=O)c2OC)cc1OC	12.1 µM (inactive)
CC1(C)Cc2c(c(N3CCOCC3)nc3sc4c(NN)ncnc4c23)CS1	> 79 µM (inactive)
O=C(Nc1ccccc1)c1nc[nH]c1C(=O)NCCCCCCNC(=O)c1[nH]cnc1C(=O)Nc1ccccc1	5.52 µM
